Here are results for seven compounds from ChEMBL document CHEMBL6114976, “Structure-based design, synthesis and biological evaluation of a novel d-amino acid-containing peptide inhibitor by blocking the RAD51-BRCA2 interaction for the treatment of kidney cancer” (Eur J Med Chem, 2025).

Data set [1] deals with T1, DNA repair protein RAD51 homolog 1 (Homo sapiens, UniProt Q06609).
T1 sequence (Q06609 whole entry): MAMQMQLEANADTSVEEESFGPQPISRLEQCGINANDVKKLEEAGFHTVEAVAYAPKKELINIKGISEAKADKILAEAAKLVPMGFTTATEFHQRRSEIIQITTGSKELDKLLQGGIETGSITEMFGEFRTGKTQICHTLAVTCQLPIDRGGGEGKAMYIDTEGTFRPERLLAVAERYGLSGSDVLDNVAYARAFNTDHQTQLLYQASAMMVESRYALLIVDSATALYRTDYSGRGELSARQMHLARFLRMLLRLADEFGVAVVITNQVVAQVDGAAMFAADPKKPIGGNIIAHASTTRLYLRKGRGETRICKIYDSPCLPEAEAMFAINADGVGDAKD
As to the kind of experiment: Binding affinity to RAD51 (unknown origin) assessed as dissociation constant by MST assay.

In data set [2] the test system is 786-0. Put plainly: Inhibition of cell proliferation of human 786-0 cells at 3 uM incubated for 72 hrs by MTT assay relative to control. It is filed as functional. In general terms: Tetrazolium dyes change colour on reduction, which living cells bring about.
For data set [3], the system named is 786-0. Put plainly: Antitumor activity against human 786-0 cells xenografted in BALB/c nude mouse assessed as reduction in tumor weight at 10 to 20 mg/kg, iv measured for 21 days. It is filed as functional, organism-based. The note with it: dose 10-20 mg/kg, time 21.0 day. (In general: Xenograft models place foreign cells or tissue in a host animal.)
Data set [4] can be described thus: Cmax in BALB/c mouse at 10 mg/kg, iv measured for 0.25 to 24 hrs by LC-MS/MS analysis. It is filed as ADME, organism-based. The note with it: in vivo, time 0.25-24 hrs.
A short description of data set [5]: Toxicity in BALB/c nude mouse xenografted with human 786-0 cells assessed as body weight change at 10 to 20 mg/kg, iv measured for 21 days. Particulars: in vivo, 504 h, dose 10-20 mg/kg, time 21 day. It counts as organism-based.
Data set [6] is described as follows: Inhibition of cell proliferation of human HK-2 cells incubated for 72 hrs by MTT assay. It counts as toxicity, cell-based.
In data set [7] the test system is 786-0. As to the kind of experiment: cells. Particulars: Homo sapiens, 786-0, 72 h.
Description: Inhibition of cell proliferation of human 786-0 cells incubated for 72 hrs by MTT assay
The nature of data set [8]: Inhibition of cell proliferation of human MCF-10A cells incubated for 72 hrs by MTT assay. It is filed as toxicity, cell-based.
Another data set deals with CAKI-1. Put plainly: Inhibition of cell proliferation of human CAKI-1 cells incubated for 72 hrs by MTT assay. It is filed as functional, cell-based. Particulars: CAKI-1, 72 h.
The nature of data set [9]: Stability in mouse serum assessed as compound remaining at 5 uM measured after 360 mins by HPLC analysis. The note with it: read-out: Stability. It counts as ADME, cell-free.
Data set [10] in a line: Tmax in BALB/c mouse at 10 mg/kg, iv measured for 0.25 to 24 hrs by LC-MS/MS analysis. It is filed as ADME, organism-based. Particulars: in vivo, time 0.25-24 hrs.
A further data set concerns A498. As to the kind of experiment: Inhibition of cell proliferation of human A498 cells incubated for 72 hrs by MTT assay. It counts as functional, cell-based. Particulars: A498, 72 h.
The subject of data set [11] is 786-0. Put plainly: Antitumor activity against human 786-0 cells xenografted in BALB/c nude mouse assessed as tumor growth inhibition administered intravenously measured for 21 days. It is filed as functional, cell-based. Particulars: dose 10-20 mg/kg, route iv, time 21.0 day.
Data set [12] in a line: Inhibition of cell proliferation of human Hkb20 cells incubated for 72 hrs by MTT assay. It is filed as toxicity, cell-based.
Data set [13] has as its system 786-0. Put plainly: Inhibition of HR repair in human 786-0 cells transfected with plasmids upto 640 nM incubated for 5 hrs by real-time PCR assay. It counts as functional, cell-based. A general note: Quantitative PCR measures a nucleic acid by following its amplification.
Data set [14] addresses T1, DNA repair protein RAD51 homolog 1. Put plainly: Inhibition of RAD51 (unknown origin) in presence of AlexaFluor 488-labeled BRC4 by fluorescence polarization competitive binding assay.
Data set [15] relates to 786-0. As to the kind of experiment: Induction of DNA damage in human 786-0 cells assessed as increase in gamma-H2AX mRNA level incubated for 48 hrs by qPCR analysis. It counts as functional, cell-based. The note with it: dose 100-300 nM.
A short description of data set [16]: Half life in BALB/c mouse at 10 mg/kg, iv measured for 0.25 to 24 hrs by LC-MS/MS analysis. It counts as ADME, organism-based. Particulars: in vivo, time 0.25-24 hrs.
Data set [17] in a line: Inhibition of cell proliferation of human GP2-293 cells incubated for 72 hrs by MTT assay. It counts as toxicity, cell-based.
Data set [18] in a line: AUC in BALB/c mouse at 10 mg/kg, iv measured for 0.25 to 24 hrs by LC-MS/MS analysis. The note with it: in vivo, time 0.25-24 hrs. It is filed as ADME, organism-based.
A short description of data set [19]: Toxicity in BALB/c nude mouse xenografted with human 786-0 cells assessed as change in BUN level at 10 to 20 mg/kg, iv measured for 21 days. It counts as organism-based. Particulars: in vivo, 504 h, dose 10-20 mg/kg, time 21 day.
Data set [20] can be described thus: Toxicity in BALB/c nude mouse xenografted with human 786-0 cells assessed as change in CREA level at 10 to 20 mg/kg, iv measured for 21 days. It is filed as organism-based. Particulars: in vivo, 504 h, dose 10-20 mg/kg, time 21 day.
The subject of data set [21] is 786-0. As to the kind of experiment: Antitumor activity against human 786-0 cells xenografted in BALB/c nude mouse assessed as reduction in tumor volume at 10 to 20 mg/kg, iv measured for 21 days. It counts as functional, organism-based. Particulars: dose 10-20 mg/kg, time 21.0 day.
Data set [22] can be described thus: Toxicity in BALB/c nude mouse xenografted with human 786-0 cells assessed as change in AST level at 10 to 20 mg/kg, iv measured for 21 days. It counts as organism-based. The note with it: in vivo, 504 h, dose 10-20 mg/kg, time 21 day.
For a further data set, the system named is ACHN. As to the kind of experiment: Inhibition of cell proliferation of human ACHN cells incubated for 72 hrs by MTT assay. It counts as functional, cell-based.
A short description of data set [23]: Inhibition of cell proliferation of human SNU-349 cells incubated for 72 hrs by MTT assay. It is filed as functional, cell-based. Particulars: SNU-349, 72 h.
The nature of data set [24]: Toxicity in BALB/c nude mouse xenografted with human 786-0 cells assessed as change in ALT level at 10 to 20 mg/kg, iv measured for 21 days. It is filed as organism-based. The note with it: in vivo, 504 h, dose 10-20 mg/kg, time 21 day.
Data set [25] can be described thus: Stability in mouse serum assessed as compound remaining at 5 uM measured after 180 mins by HPLC analysis. It counts as ADME, cell-free. Particulars: 3 h.

Active and inactive are the calls of the source. Residues, ends and D or L forms follow the SMILES beside them.

As usually defined, the Kd is the concentration at which binding is half-saturated. By inhibition is commonly meant the change of the read-out against control, counted positive when it falls. In the case of `CC[C@](C)(NC(=O)[C@@H](NC(=O)[C@H](CC(C)C)NC(=O)[C@H](Cc1ccccc1)NC(=O)[C@@H](CO)NC(C)=O)[C@@H](C)O)C(N)=O`, in data set [1], the Kd is 0.128 µM. In the data set on 786-0 [2], this compound had an inhibition at 3 µM of more than 60%.

Take `CC(=O)N[C@H](CO)C(=O)N[C@@H](Cc1ccccc1)C(=O)N[C@@H](CC(C)C)C(=O)N[C@H](C(=O)N[C@@H](C)C(N)=O)C(C)C`: in data set [1], the equilibrium dissociation constant (Kd) was 0.145 µM. The inhibition at 3 µM in the data set with 786-0 [2] was more than 60%.

In general, Cmax refers to the peak of the concentration-time curve. By IC50 is commonly meant the concentration needed to halve the response being measured. The Tmax is the time at which the peak concentration occurs. As usually defined, the half-life is the time needed for the level to fall by half in the phase considered. Higher therefore signals slow decline. For orientation: AUC means concentration integrated over time. Low values mean less exposure, high ones more exposure. As for `CC[C@](C)(NC(=O)[C@@H](NC(=O)[C@H](CC(C)C)NC(=O)[C@H](Cc1c[nH]c2ccccc12)NC(=O)[C@@H](CO)NC(C)=O)[C@@H](C)O)C(N)=O`, the result in the data set on 786-0 [3] and in the data set with 786-0 [21] was Active. In data set [4], this compound displayed a Cmax of 6.47 µg/mL. Also, the Activity result in data set [5] is “Non-toxic”; with 786-0 [11], “Dose-dependent-effect”; in the data set on 786-0 [15], “Dose-dependent-effect”; in [19], “Non-toxic”; in data set [20], “Non-toxic”; in data set [22] it was “Non-toxic”. The Activity entry in data set [24] is “Non-toxic”. For the same compound, the IC50 at 72 h in data set [6], in data set [8], in [12] and in data set [17] was more than 10 µM each time. The IC50 in the data set with 786-0 [7] was found to be 0.09 µM; in the data set with CAKI-1, 0.51 µM; in the data set with A498 it was 0.68 µM; in [14], 0.035 µM; in the data set with ACHN, 0.31 µM; in [23] it was 0.25 µM. For the same compound, the remaining at 6 h, 5 µM in data set [9] was 85%. Moreover, in data set [10], the time of peak concentration (Tmax) amounted to 0.29 h. In addition, in [1], the Kd is 0.00924 µM. Further, the inhibition entry in the data set with 786-0 [13] is “Dose-dependent-effect”. For the same compound, in the data set on 786-0 [2], the inhibition at 3 µM is more than 90%. This compound also had a half-life in data set [16] of 7.38 h. The AUC in data set [18] was 13 µg·h/mL.

As to `CC[C@](C)(NC(=O)[C@@H](NC(=O)[C@H](CC(C)C)NC(=O)[C@H](Cc1c[nH]c2ccccc12)NC(=O)[C@@H](CO)NC(C)=O)C(C)C)C(N)=O`, the dissociation constant (Kd) in [1] turned out to be 0.0567 µM. This compound yielded an inhibition at 3 µM in the data set on 786-0 [2] of more than 60%.

Turning to `CC[C@](C)(NC(=O)[C@@H](NC(=O)[C@H](C)NC(=O)[C@H](Cc1c[nH]c2ccccc12)NC(=O)[C@@H](CO)NC(C)=O)[C@@H](C)O)C(N)=O`, in data set [1], the Kd was 0.0401 µM. In the data set with 786-0 [2], this compound came in with an inhibition at 3 µM of more than 60%.

Regarding `CC[C@](C)(NC(=O)[C@@H](NC(=O)[C@H](CC(C)C)NC(=O)[C@H](Cc1c[nH]c2ccccc12)NC(=O)[C@H](CO)NC(C)=O)[C@@H](C)O)C(N)=O`, in data set [1], the dissociation constant (Kd) was found to be 0.236 µM. In the data set on 786-0 [2], this compound registered an inhibition at 3 µM of more than 60%.

For the compound `CC[C@H](C)[C@H](NC(=O)[C@H](CCCCN)NC(=O)[C@@H](NC(=O)[C@H](CCCCN)NC(=O)[C@H](CCCCN)NC(=O)CNC(=O)[C@H](CO)NC(=O)[C@H](C)NC(=O)[C@@H](NC(=O)[C@H](Cc1c[nH]cn1)NC(=O)[C@H](Cc1ccccc1)NC(=O)CNC(=O)[C@H](CC(C)C)NC(=O)[C@H](CC(C)C)NC(C)=O)[C@@H](C)O)C(C)C)C(=O)N[C@@H](C)C(=O)N[C@@H](CCCCN)C(N)=O` (Ac-LLGFHTASGKKVKIAK-NH2), in data set [25], the Stability entry was “Unstable”. The same compound had a half-maximal inhibitory concentration (IC50) in the data set with 786-0 [7] of more than 10 µM. In addition, the Kd in data set [1] amounted to 0.602 µM.
